Measurements as given in patent publication US8211909B2, “Treatment of antibiotic-resistant bacteria infection” (TaiGen Biotechnology Co., Ltd., priority 2008, dated 2012).
Converted amounts (≈) assume the structure as drawn. Where two headings read alike, the source gives them in different places.

How the values were obtained:
[1] = test system: Methicillin-resistant Staphylococcus aureus (MRSA) isolates; assay: MIC by broth microdilution (CLSI) against CAN-ICU MRSA isolates; format: cell-based; details: Staphylococcus aureus
Excerpt: MRSA isolates (n=193) were obtained as part of the Canadian National Intensive Care Unit (CAN-ICU) Study. 19 medical centers from all regions of Canada with active ICUs participated in the CAN-ICU study included. They were requested to only obtain “clinically significant” specimens from patients with a presumed infectious disease. Surveillance swabs, eye, ear, nose and throat swabs were excluded. Anaerobic organisms and fungal organisms were also excluded.
From September 2005-June 2006 (inclusive), each center collected a maximum of 300 consecutive pathogens isolated from blood, urine, tissue/wound, and respiratory specimens (one pathogen per cultured site per patient) of ICU patients. These isolates were shipped to the reference laboratory (Health Sciences Centre, Winnipeg, Canada) on Amies charcoal swabs, subcultured in appropriate media, and stocked in skim milk at −80° C.
All isolates underwent mecA PCR, as well as molecular characterization (including PVL analysis and fingerprinting), as previously described, to assess whether they were community-associated or healthcare-associated (Christianson et al., J Clin Microbiol. 2007, 45 (6): 1904-11; Mulvey et al., J Clin. Microbiol. 2001, 39(10): 3481-5; Mulvey et al., Emerg Infect Dis. 2005,11(6): 844-50; Oliveira et al., Antimicrob Agents Chemother. 2002, 46(7): 2155-61). The isolates were also subtyped using pulsed-field gel electrophoresis (PFGE) following the Canadian standardized protocol as previously described (Mulvey et al., J Clin Microbiol. 2001, 39(10): 3481-5). Their PFGE fingerprints thus obtained were analyzed with BioNumerics v3.5 (Applied Maths St. Marten-Latem, Belgium) using a position tolerance of 1.0 and an optimization of 1.0. Strain relatedness was determined as previously described (Tenover et al., 1995). The fingerprints of the isolates were compared to the national MRSA fingerprint database and were grouped into one of 10 Canadian epidemic MRSA (CMRSA-1, CMRSA-2, etc) as previously described (Mulvey et al., Emerg Infect Dis. 2005,11(6):844-50).
Compound 1 and other antibiotics were tested for their inhibitory activity against the MRSA isolates using the broth microdilution guidelines as stipulated by the Clinical and Laboratory Standards Institute.

[2] = test system: Staphylococcus aureus strains (MRSA, hVISA, VISA, VRSA, quinolone-resistant MRSA); assay: MIC by agar dilution against Staphylococcal strains (MRSA, hVISA, VISA, VRSA, quinolone-resistant MRSA); format: cell-based; details: Staphylococcus aureus
Method: Compound 1 was tested for its inhibitory effect against 26 Methicillin-resistant Staphylococcus aureus (MRSA) strains, 2 hetero-Vancomycin intermediate Staphylococcus aureus (hVISA) strains, 24 Vancomycin-intermediate Staphylococcus aureus (VISA) strains, 5 Vancomycin-resistant Staphylococcus aureus (VRSA) strains, and 31 quinolone-resistant Vancomycin-susceptibale MRSA strains with defined mutations in QRDR. These mutations were determined by sequencing analysis of the QRDR (gyrA, gyrB, grlA, and grlB). Efflux testing was performed by the reserpine method (Brenwald, et al., Antimicrob. Agents Chemother. 1998, 42: 2032-2035).

H. pylori isolates = assay: MIC by agar dilution against 200 H. pylori isolates (Taiwan); format: cell-based, Helicobacter pylori; details: for share of isolates resistant: 200 H. pylori isolates, resistance: amoxicillin MICs≧0.5, clarithromycin ≧1, metronidazole ≧8, ciprofloxacin ≧1, levofloxacin ≧1 μg/mL
Method: MICs were determined using the agar dilution methods recommended by the Clinical and Laboratory Standards Institute (CLSI-M100-S18).

[3] = MRSA (n = 193), read-out: MIC50
[4] = MRSA (n = 193), read-out: MIC90
[5] = MRSA (n = 193), read-out: MIC Range Max
[6] = MRSA (n = 193), read-out: MIC Range Min
[7] = hVISA(2) + VISA (24) + VRSA (5)
[8] = read-out: MIC Range, Quinolone-resistant MRSA (31)
[9] = read-out: MIC Range, hVISA(2) + VISA (24) + VRSA (5)
[10] = Helicobacter pylori, 200 isolates of H. pylori

Row | MIC50 [1, 3] [µg/mL] | MIC90 [1, 4] [µg/mL] | MIC [1, 5] [µg/mL] | MIC [1, 6] [µg/mL] | Compound | MIC50 ([2]; MRSA (26)) [µg/mL] | MIC90 ([2]; MRSA (26)) [µg/mL] | MIC50 ([2]; Quinolone-resistant MRSA (31)) [µg/mL] | MIC90 ([2]; Quinolone-resistant MRSA (31)) [µg/mL] | MIC50 [2, 7] [µg/mL] | MIC90 [2, 7] [µg/mL] | MIC ([2]; read-out: MIC Range, MRSA (26)) [µg/mL] | MIC [2, 8] [µg/mL] | further results
1 |  |  |  |  | CC1(C)S[C@@H]2[C@H](NC(=O)[C@H](N)c3ccc(O)cc3)C(=O)N2[C@H]1C(=O)O [amoxicillin] |  |  |  |  |  |  |  |  | share of isolates resistant (H. pylori isolates): 2%
2 | 128 (≈ 282 µM) | > 128 | > 128 | 2 (≈ 4.4 µM) | Cc1nnc(SCC2=C(C(=O)O)N3C(=O)[C@@H](NC(=O)Cn4cnnn4)[C@H]3SC2)s1 [Cefazolin] |  |  |  |  |  |  |  |  | 
3 |  |  |  |  | CN[C@H](CC(C)C)C(=O)N[C@H]1C(=O)N[C@@H](CC(N)=O)C(=O)N[C@H]2C(=O)N[C@H]3C(=O)N[C@H](C(=O)N[C@H](C(=O)O)c4cc(O)cc(O)c4-c4cc3ccc4O)[C@H](O)c3ccc(c(Cl)c3)Oc3cc2cc(c3O[C@@H]2O[C@H](CO)[C@@H](O)[C@H](O)[C@H]2O[C@H]2C[C@](C)(N)[C@H](O)[C@H](C)O2)Oc2ccc(cc2Cl)[C@H]1O [Vancomycin] | 1 (≈ 0.69 µM) | 1 (≈ 0.69 µM) | 1 (≈ 0.69 µM) | 1 (≈ 0.69 µM) | 4 | 32 | 0.5 to 1 (≈ 0.345 to 0.69 µM) | 0.5 to 2 (≈ 0.345 to 1.38 µM) | MIC50 ([1]; MRSA): 1 µg/mL (≈ 0.69 µM); MIC90 ([1]; MRSA): 1 µg/mL (≈ 0.69 µM); MIC50 ([1]; MRSA / USA100): 1 µg/mL (≈ 0.69 µM); MIC90 ([1]; MRSA / USA100): 1 µg/mL (≈ 0.69 µM); MIC50 ([1]; MRSA / USA200): 0.5 µg/mL (≈ 0.345 µM); MIC90 ([1]; MRSA / USA200): 0.5 µg/mL (≈ 0.345 µM); MIC50 ([1]; MRSA / USA300): 0.5 µg/mL (≈ 0.345 µM); MIC90 ([1]; MRSA / USA300): 0.5 µg/mL (≈ 0.345 µM); MIC50 ([1]; MRSA / USA400): 1 µg/mL (≈ 0.69 µM); MIC90 ([1]; MRSA / USA400): 1 µg/mL (≈ 0.69 µM); MIC50 ([1]; MRSA / USA600): 1 µg/mL (≈ 0.69 µM); MIC90 ([1]; MRSA / USA600): 1 µg/mL (≈ 0.69 µM); MIC ([1]; MRSA, read-out: MIC Range Max): 1 µg/mL (≈ 0.69 µM); MIC ([1]; MRSA, read-out: MIC Range Min): 0.5 µg/mL (≈ 0.345 µM)
4 | > 64 | > 64 | > 64 | 8 (≈ 14.4 µM) | CO/N=C(\C(=O)N[C@@H]1C(=O)N2C(C(=O)O)=C(CSc3nc(=O)c(=O)[nH]n3C)CS[C@H]12)c1csc(N)n1 [Ceftriaxone] |  |  |  |  |  |  |  |  | 
5 | > 32 | > 32 | > 32 | 0.25 (≈ 0.334 µM) | CC[C@H]1OC(=O)[C@H](C)[C@@H](O[C@H]2C[C@@](C)(OC)[C@@H](O)[C@H](C)O2)[C@H](C)[C@@H](O[C@@H]2O[C@H](C)C[C@H](N(C)C)[C@H]2O)[C@](C)(OC)C[C@@H](C)C(=O)[C@H](C)[C@@H](O)[C@]1(C)O [Clarithromycin] |  |  |  |  |  |  |  |  | share of isolates resistant (H. pylori isolates): 6%
6 |  |  |  |  | COc1c(N2C[C@@H]3CCCN[C@@H]3C2)c(F)cc2c(=O)c(C(=O)O)cn(C3CC3)c12 [Moxifloxacin] | 0.06 (≈ 0.149 µM) | 0.06 (≈ 0.149 µM) | 4 (≈ 9.96 µM) | 8 (≈ 19.9 µM) | 4 | 8 | 0.03 to 0.25 (≈ 0.0747 to 0.623 µM) | 1 to 8 (≈ 2.49 to 19.9 µM) | MIC [2, 9]: 0.06 to 8 µg/mL; MIC50 (H. pylori isolates; [10]): 250 µg/mL (≈ 623 µM); MIC90 (H. pylori isolates; [10]): 500 µg/mL (≈ 1250 µM)

Row | Compound | MIC50 [1, 3] [µg/mL] | MIC90 [1, 4] [µg/mL] | MIC [1, 5] [µg/mL] | MIC [1, 6] [µg/mL] | MIC50 ([2]; MRSA (26)) [µg/mL] | MIC90 ([2]; MRSA (26)) [µg/mL] | MIC50 ([2]; Quinolone-resistant MRSA (31)) [µg/mL] | MIC90 ([2]; Quinolone-resistant MRSA (31)) [µg/mL] | MIC50 [2, 7] [µg/mL] | MIC90 [2, 7] [µg/mL] | MIC ([2]; read-out: MIC Range, MRSA (26)) [µg/mL] | MIC [2, 8] [µg/mL] | further results
7 | CC(=O)NC[C@H]1CN(c2ccc(N3CCOCC3)c(F)c2)C(=O)O1 [Linezolid] | 2 (≈ 5.93 µM) | 2 (≈ 5.93 µM) | 4 (≈ 11.9 µM) | 0.5 (≈ 1.48 µM) | 4 (≈ 11.9 µM) | 4 (≈ 11.9 µM) | 1 (≈ 2.96 µM) | 1 (≈ 2.96 µM) | 1 | 1 | 2 to 4 (≈ 5.93 to 11.9 µM) | 0.25 to 1 (≈ 0.741 to 2.96 µM) | MIC50 ([1]; MRSA / USA100, USA 100/800 (HA-MRSA), read-out: MIC50): 2 µg/mL (≈ 5.93 µM); MIC90 ([1]; MRSA / USA100, USA 100/800 (HA-MRSA), read-out: MIC90): 2 µg/mL (≈ 5.93 µM); MIC50 ([1]; MRSA / USA200, USA 200 (HA-MRSA), read-out: MIC50): 2 µg/mL (≈ 5.93 µM); MIC90 ([1]; MRSA / USA200, USA 200 (HA-MRSA), read-out: MIC90): 2 µg/mL (≈ 5.93 µM); MIC50 ([1]; MRSA / USA300, USA 300 (CA-MRSA), read-out: MIC50): 1 µg/mL (≈ 2.96 µM); MIC90 ([1]; MRSA / USA300, USA 300 (CA-MRSA), read-out: MIC90): 2 µg/mL (≈ 5.93 µM); MIC50 ([1]; MRSA / USA400, USA 400 (CA-MRSA), read-out: MIC50): 2 µg/mL (≈ 5.93 µM); MIC90 ([1]; MRSA / USA400, USA 400 (CA-MRSA), read-out: MIC90): 2 µg/mL (≈ 5.93 µM); MIC50 ([1]; MRSA / USA600, USA 600 (HA-MRSA), read-out: MIC50): 2 µg/mL (≈ 5.93 µM); MIC90 ([1]; MRSA / USA600, USA 600 (HA-MRSA), read-out: MIC90): 2 µg/mL (≈ 5.93 µM); MIC [2, 9]: 0.5 to 2 µg/mL
